Results from article PMC7760690, “Neuroprotective Metabolites from Vietnamese Marine Derived Fungi of Aspergillus and Penicillium Genera” (Marine Drugs, 2020).

Experiments:
[1] = parameters: method as in doi:10.1007/BF03175531; settings: cited from earlier work
[2] = test system: rotenone-treated Neuro-2a cells; test: ROS level in rotenone-treated cells (H2DCFDA); type: cell-based, murine
Description: (§1) The murine neuroblastoma cell line Neuro-2a was purchased from ATCC.
(§2) Neuro-2a cells were cultured in DMEM medium containing 10% fetal bovine serum (Biolot, St. Petersburg, Russia) and 1% penicillin/streptomycin (Biolot, St. Petersburg, Russia). Cells were incubated at 37 °C in a humidified atmosphere containing 5% (v/v) CO2 [71].
(§3) The cells (1 × 10^4 cells/well of a 96-well plate) were incubated with compound solutions (10 µM) during 1 h. Then, 6-OHDA/PQ/rotenone were added to cell suspension to resulting concentration of 50 µM, 500 µM and 10 µM respectively for incubation during 1 h. Cells incubated without neurotoxins and compounds and with neurotoxins alone were used as positive and negative controls, respectively. The 20 µL of 2,7-dichlorodihydrofluorescein diacetate solution (H2DCFDA, Molecular Probes, Eugene, OR, USA) was added to each well (10 µM, final concentration) and the plate was incubated for an additional 10 min at 37 °C. The intensity of dichlorofluorescein fluorescence was measured with PHERAstar FS plate reader (BMG Labtech, Ortenberg, Germany) at λex = 485 nm and λem = 518 nm. The data were processed by MARS Data Analysis v. 3.01R2 (BMG Labtech, Germany). The results were presented as the percent of positive control data.

[3] = DPPH radical scavenger assay; settings: for EC50 / DPPH Radical Scavenging 100 µM % of MeOH: 30 min; for EC50: MeOH, read-out: DPPH Radical Scavenging EC50; for DPPH Radical Scavenging 100 µM % of MeOH: compound 100 µM, absorbance 520 nm
Description: The DPPH radical scavenging activities of the compounds were tested as described.
The compounds were dissolved in MeOH, and the solutions (120 µL) were dispensed into wells of a 96-well microplate. In all, 30 µL of the DPPH (Sigma-Aldrich, Steinheim, Germany) solution in MeOH (7.5 × 10^−3 M) was added to each well. The concentrations of the test compounds in the mixtures were 10 and 100 µM. The mixtures were shaken and left to stand for 30 min, and the absorbance of the resulting solutions was measured at 520 nm with a microplate reader MultiscanFC (ThermoScientific, Waltham, MA, USA). The concentration scavenging 50% of the DPPH radical (EC50) was calculated for each investigated compound.

[4] = test system: PQ-treated Neuro-2a cells; test: ROS level in PQ-treated cells (H2DCFDA); type: cell-based, murine
Description: as §1, §2
as §3, with “The cells (1 × 10^4 cells/well of a 96-well plate) were incubated with compound solutions (10 µM) during 1 h.” left out

[5] = parameters: method as in doi:10.1007/BF01922472, doi:10.1016/j.tet.2016.09.008; settings: cited from earlier work
MTT cytotoxicity assay = type: cell-based, murine; settings: mouse, Neuro-2a neuroblastoma cells; Neuro-2a cells, MTT
Description: as §1, §2
The in vitro cytotoxicity of the individual substances was evaluated using an MTT (3-(4,5-dimethylthiazol-2-yl)-2,5-diphenyltetrazolium bromide) assay, which was performed according to the manufacturer’s instructions (Sigma-Aldrich, USA). Absorbance of the converted formazan was measured using a Multiskan FC plate photometer (Thermo Scientific, Waltham, MA, USA) at λ = 570 nm. The results were presented as percent of control data, and concentration of cell viability inhibition on 50% (IC50) was calculated.

[6] = test system: 6-OHDA-treated Neuro-2a cells; test: ROS level in 6-OHDA-treated cells (H2DCFDA); type: cell-based, murine
Description: as §1, §2, §3

[7] = test system: Neuro-2a cells treated with 6-OHDA; test: 6-OHDA-induced PD cell model, cell viability (MTT); type: cell-based, murine; settings: compounds 6-12 at 1 µM; 6-OHDA 50 µM
Description: as §1, §2
(§4) The neuroblastoma Neuro-2a line cells (1 × 10^4 cells/well) were treated with the test compounds at concentrations of 1 and/or 10 µM for 1 h, and then the neurotoxins were added to the neuroblastoma cell suspensions. Rotenone (Sigma-Aldrich, USA) was used at the concentration of 10 µM. Paraquat (Sigma-Aldrich, USA) was used at 500 µM. 6-Hydroxydopamine (Sigma-Aldrich, USA) was used at 50 µM. Cells incubated without neurotoxins and the test compounds and cells incubated with neurotoxins only were used as positive and negative controls, respectively. After 24 h of incubation, the cell viabilities were measured using the MTT method. The results are presented as the percent of positive control data.

[8] = no exact data published; cited from earlier work
[9] = test system: PQ-treated Neuro-2a cells; test: Paraquat-induced PD cell model, cell viability (MTT); type: cell-based, murine
Description: as §1, §2, §4

[10] = test system: rotenone-treated Neuro-2a cells; test: Rotenone-induced PD cell model, cell viability (MTT); type: cell-based, murine
Description: as §1, §2, §4

O=C1C[C@H](O)[C@@H](O)c2cccc(O)c21 [Compound 2, (3S,4S)-4-hydroxy-6-dehydroxyscytalone]
antinematodal activity [1]: antinematodal agents | influence on ROS level in rotenone-treated cells ([2]; compounds 1-5, compound 10 µM 1 h, rotenone 10 µM 1 h): decreased a ROS level | EC50 [3]: > 100 µM | DPPH Radical Scavenging 100 µM % of MeOH [3]: 84.8 ± 3.2 % of MeOH | influence on ROS level in PQ-treated cells ([4]; compounds 1-5, compound 10 µM 1 h, PQ 500 µM 1 h): decreased a ROS level | phytotoxic activity [5]: phytotoxic | IC50 (MTT cytotoxicity assay): > 100 µM | influence on ROS level in 6-OHDA-treated cells ([6]; compounds 1-5, compound 10 µM 1 h, 6-OHDA 50 µM 1 h): decreased a ROS level

COc1c2c(c(OC)c(O)c1-c1c[nH]c3ccccc13)C1(O)c3ccccc3NC1O2 (stereo not shown) [Compound 6, 3-(1H-indol-3-yl)-1,4-dimethoxy-5a,6-dihydro-10bH-benzofuro [2,3-b]indole-2,10b-diol]
EC50 [3]: > 100 µM | DPPH Radical Scavenging 100 µM % of MeOH [3]: 67.3 ± 3.9 % of MeOH | IC50 (MTT cytotoxicity assay): > 100 µM

NCCc1cc(O)c(O)cc1O [Compound 6-OHDA, 6-hydroxydopamine, reference compound]
increase of intracellular ROS level by neurotoxin ([6]; 6-OHDA 50 µM alone, 1 h): 66%

C=CC(C)(C)c1[nH]c2ccccc2c1C1=C(OC)C(=O)C(c2cn(C(C)(C)C=C)c3ccccc23)=C(OC)C1=O [Compound 7, Asterriquinone A3]
cytoprotective activity in 6-OHDA-induced PD cell model [7]: weak cytoprotective activity | EC50 [3]: > 100 µM | DPPH Radical Scavenging 100 µM % of MeOH [3]: 88.9 ± 1.6 % of MeOH | IC50 (MTT cytotoxicity assay): > 100 µM

C=CC(C)(C)c1[nH]c2ccccc2c1C1=C(OC)C(=O)C(c2c(C(C)(C)C=C)[nH]c3ccccc23)=C(OC)C1=O [Compound 8, asterriquinone B4]
EC50 [3]: > 100 µM | DPPH Radical Scavenging 100 µM % of MeOH [3]: 89.5 ± 0.9 % of MeOH | IC50 (MTT cytotoxicity assay): 91.5 ± 1.87 µM

C=CC(C)(C)c1[nH]c2ccccc2c1C1=C(OC)C(=O)C(c2c[nH]c3ccccc23)=C(OC)C1=O [Compound 9, asterriquinone C1]
EC50 [3]: > 100 µM | DPPH Radical Scavenging 100 µM % of MeOH [3]: 82.4 ± 1.7 % of MeOH | IC50 (MTT cytotoxicity assay): 42.3 ± 1.45 µM

COC1=C(c2c[nH]c3ccccc23)C(=O)C(OC)=C(c2c[nH]c3c(CC=C(C)C)cccc23)C1=O [Compound 10, asterriquinone C2]
EC50 [3]: > 100 µM | DPPH Radical Scavenging 100 µM % of MeOH [3]: 91.3 ± 1.1 % of MeOH | IC50 (MTT cytotoxicity assay): > 100 µM

COC1=C(c2c[nH]c3ccccc23)C(=O)C(OC)=C(c2c[nH]c3ccccc23)C1=O [Compound 11, asterriquinone D]
EC50 [3]: > 100 µM | DPPH Radical Scavenging 100 µM % of MeOH [3]: 85.6 ± 1.3 % of MeOH | IC50 (MTT cytotoxicity assay): > 100 µM

COc1cc(O)cc2c1C(=O)c1c(O)cc(C)cc1C2=O [Compound 12, questin]
cytoprotective activity in 6-OHDA-induced PD cell model [7]: inactive | influence on ROS level in rotenone-treated cells ([2]; compounds 6-12, 1 µM (method: 10 µM), rotenone 10 µM): significant in vitro anti-ROS activity | EC50 [3]: > 100 µM | radical scavenging activity in cell-free assay ([3]; DPPH, up to 100 µM): did not show any significant DPPH radical scavenging | DPPH Radical Scavenging 100 µM % of MeOH [3]: 87.7 ± 2.4 % of MeOH | DPPH-radical scavenging activity [8]: DPPH-radical scavenging activity has been reported | influence on ROS level in PQ-treated cells ([4]; compounds 6-12, 1 µM (method: 10 µM), PQ 500 µM): significant in vitro anti-ROS activity | cytoprotective activity in PQ-induced PD cell model ([9]; compounds 6-12 at 1 µM, paraquat 500 µM): inactive | IC50 (MTT cytotoxicity assay): > 100 µM | influence on ROS level in 6-OHDA-treated cells ([6]; compounds 6-12, 1 µM (method: 10 µM), 6-OHDA 50 µM): significant in vitro anti-ROS activity | cytoprotective activity in rotenone-induced PD cell model ([10]; compounds 6-12 at 1 µM, rotenone 10 µM): moderate cytoprotective activity

C[n+]1ccc(-c2cc[n+](C)cc2)cc1 [PQ, paraquat, reference compound]
increase of intracellular ROS level by neurotoxin ([4]; PQ 500 µM alone, 1 h): 48% | decrease of Neuro-2a cell viability by neurotoxin ([9]; paraquat 500 µM alone, 24 h): 44%

C=C(C)[C@H]1Cc2c(ccc3c2O[C@@H]2COc4cc(OC)c(OC)cc4[C@@H]2C3=O)O1 [Rotenone, reference compound]
increase of intracellular ROS level by neurotoxin ([2]; rotenone 10 µM alone, 1 h): 79% | decrease of Neuro-2a cell viability by neurotoxin ([10]; rotenone 10 µM alone, 24 h): 48%
